{"source": "patent US11974574B2", "about": "“Compositions and related methods for modulating endosymbionts” (Flagship Pioneering Innovations V, Inc., priority 2017, dated 2024)", "key": {"Aphids LSR-1, A. pisum": {"test_system": "Aphids LSR-1, A. pisum", "experiment": "BCR-4 PNA microinjection, aphid survival and fecundity", "format": "in vivo", "description": "(§1) Microinjection was performed using NanoJet III Auto-Nanoliter Injector with an in-house pulled borosilicate needle (Drummond Scientific; Cat #3-000-203-G/XL). Aphids were transferred using a paint brush to a tubing system connected to vacuum which held them in place during the injection. The injection site was at the ventral thorax of the aphid. The injection solutions were water (negative control) or 321 ng/μl of BCR-4 PNA in water. The injection volume was 20 nl for adult (4th and 5th instar) aphids at a rate of 2 nl/sec. Each treatment group had approximately the same number of individuals injected from each of the collection plants. After injection, aphids were released into a petri dish onto fava bean leaves that had stems in an Eppendorf tube filled with 1 ml water. Survival and fecundity were monitored over the course of the experiment.\n(§2) Aphids LSR-1 (which harbor only Buchnera), A. pisum were grown on fava bean plants (Vroma Vicia faba from Johnny's Selected Seeds) in a climate-controlled incubator (16 h light/8 h dark photoperiod; 60±5% RH; 25±2° C.). […]\nThe number of offspring produced from aphids in each treatment group was also assessed during the experiment and fecundity was represented as the number of offspring produced per adult at each time point assessed. […]"}, "Buchnera": {"test_system": "Buchnera", "experiment": "BCR-4 PNA leaf perfusion, Buchnera/aphid copies by qPCR", "format": "in vivo", "settings": "dead aphids collected 5 and 6 days post-treatment, water approximately 20", "description": "After 5 and 6 days of treatment, DNA was extracted from dead aphids from each treatment group. Briefly, the aphid body surface was sterilized by dipping the aphid into a 6% bleach solution for approximately 5 seconds. Aphids were then rinsed in sterile water and DNA was extracted from each individual aphid using a DNA extraction kit (Qiagen, DNeasy kit) according to manufacturer's instructions. DNA concentration was measured using a nanodrop nucleic acid quantification, and Buchnera and aphid DNA copy numbers were measured by qPCR. The primers used for Buchnera were Buch_groES_18F ([…]; SEQ ID NO: 101) and Buch_groES_98R ([…]; SEQ ID NO: 102) (Chong and Moran, 2016 PNAS). The primers used for aphid were ApEF1a 107F ([…]; SEQ ID NO: 103) and ApEF1a 246R ([…]; SEQ ID NO: 104) (Chong and Moran, 2016 PNAS). qPCR was performed using a qPCR amplification ramp of 1.6 degrees C./s and the following conditions: 1) 95° C. for 10 minutes, 2) 95° C. for 15 seconds, 3) 55° C. for 30 seconds, 4) repeat steps 2-3 40×, 5) 95° C. for 15 seconds, 6) 55° C. for 1 minute, 7) ramp change to 0.15 degrees C./s, 8) 95° C. for 1 second. qPCR data was analyzed using analytic (Thermo Fisher Scientific, QuantStudio Design and Analysis) software. […]"}, "[1]": {"test_system": "Aphids (LSR-1 strain, Acyrthosiphon pisum)", "experiment": "BCR-4 PNA leaf perfusion, aphid development and survival", "format": "in vivo", "settings": "leaf perfusion with 1 uM solution", "description": "Aphids (LSR-1 strain, Acyrthosiphon pisum) were grown on fava bean plants (Vroma Vicia faba from Johnny's Selected Seeds) in a climate-controlled incubator (16 h light/8 h dark photoperiod; 60±5% RH; 25±2° C.). Prior to being used for aphid rearing, fava bean plants were grown in potting soil at 24° C. with 16 h of light and 8 h of darkness. To limit maternal effects or health differences between plants, 5-10 adults from different plants were distributed among 10 two-week-old plants and allowed to multiply to high density for 5-7 days. For experiments, first and second instar aphids were collected from healthy plants and divided into two different treatment groups: 1) those allowed to feed on leaves perfused with water, and, 2) those allowed to feed on leaves perfused with a BCR-4 PNA solution in water.\nFor each leaf perfusion, approximately 1 ml of water (negative control) or a 1 uM BCR-4 PNA solution was injected into a fava bean leaf. […] Aphids were monitored daily for survival and dead aphids were removed when they were discovered. In addition, the developmental stage (1st, 2nd, 3rd, 4th, and 5th instar) was determined daily throughout the experiment.\nLSR-1 first and second instar aphids were divided into two groups as defined in Leaf Perfusion Experimental Design. Aphids were monitored daily and the number of aphids at each developmental stage was determined. […]"}, "BCR-4 [2]": {"test_system": "BCR-4", "experiment": "BCR-4 PNA leaf perfusion, BCR-4 expression by RT-qPCR", "format": "in vivo, Acyrthosiphon pisum", "settings": "living aphids after 7 days of treatment, relative to actin", "description": "After 7 days of treatment, RNA was extracted from the remaining aphids in each treatment group. Briefly, the aphid body surface was sterilized by dipping the aphid into a 6% bleach solution for approximately 5 seconds. Aphids were then rinsed in sterile water and total RNA was extracted from each individual aphid using the RNA extraction kit (Qiagen miRNeasy kit) according to manufacturer's instructions. RNA concentrations were measured using a nanodrop nucleic acid quantification. BCR-4 relative expression was measured by RT-qPCR. The primers used were ApBCR-4F ([…]; SEQ ID NO: 107) and ApBCR-4R ([…]; SEQ ID NO: 108). The internal reference gene primers were for Actin (housekeeping gene). The forward sequence was […]; SEQ ID NO: 109 and the reverse sequence was […]; SEQ ID NO: 110. […] RT-qPCR data was analyzed using analytic (Thermo Fisher Scientific, QuantStudio Design and Analysis) software.\nAt 7 post-treatment, RNA was extracted from live aphids and RT-pPCR was done as described above (see Microinjection Delivery Experimental Design) to quantify expression of BCR-4. […]"}, "BCR-4 [3]": {"test_system": "BCR-4", "experiment": "BCR-4 PNA microinjection, BCR-4 expression by RT-qPCR (Example 18)", "format": "in vivo, A. pisum", "settings": "microinjection 20 nl of 321 ng/μl; 4th and 5th instar; after 7 days; relative to Actin", "description": "as §1, §2\nAfter 7 days of treatment, RNA was extracted from the remaining aphids in each treatment group. […] RNA concentrations were measured using a nanodrop nucleic acid quantification. BCR-4 relative expression was measured by RT-qPCR. […] RT-qPCR data was analyzed using analytic (Thermo Fisher Scientific, QuantStudio Design and Analysis) software. […]"}}}
{"substance": "YGRKKRRQRRR-CGTACAATAATCTCATGG [BCR-4 PNA]", "values": [{"measurement": "survival versus water-injected aphids", "setting": "Aphids LSR-1, A. pisum; microinjection 20 nl of 321 ng/μl, 4th and 5th instar", "result": "slight decrease in survival"}, {"measurement": "fecundity, average offspring produced per adult", "setting": "Aphids LSR-1, A. pisum; microinjection, at 3 and 7 days post-treatment, water 5 offspring/adult", "result": 4, "unit": "offspring/adult"}, {"measurement": "mean ratio Buchnera/aphid copies", "setting": "Buchnera", "result": "approximately 57 Buchnera/aphid copies"}, {"measurement": "aphids alive", "setting": "[1]; day 7, water 53%", "result": 30, "unit": "%"}, {"measurement": "aphids in the 3rd instar stage", "setting": "[1]; first and second instar LSR-1, day 2 post-treatment, water approximately 19%", "result": 8, "unit": "%"}, {"measurement": "median transcript levels of BCR-4, fold lower than water", "setting": "BCR-4 [2]", "result": "approximately 3 fold"}, {"measurement": "BCR-4 expression, fold higher in water-injected aphids than in treated aphids", "setting": "BCR-4 [3]", "result": "approximately 2 fold"}]}
